Activity calls are given as the source filed them. The rule behind the calls is not given here.
Tests used:
[1] = molecular target: 5-hydroxytryptamine receptor 5A (Homo sapiens, UniProt P47898)
Description: Binding affinity to serotonin 5-HT5A receptor (unknown origin) by PDSP assay

[2] = molecular target: 5-hydroxytryptamine receptor 3A (Homo sapiens, UniProt P46098)
Description: Binding affinity to serotonin 5-HT3 receptor (unknown origin) by PDSP assay

D(1B) dopamine receptor = D(1B) dopamine receptor (Homo sapiens, UniProt P21918)
[3] = molecular target: 5-hydroxytryptamine receptor 1B (Homo sapiens, UniProt P28222)
Description: Binding affinity to serotonin 5-HT1B receptor (unknown origin) by PDSP assay

[4] = molecular target: 5-hydroxytryptamine receptor 1E (Homo sapiens, UniProt P28566)
Chain of 5-hydroxytryptamine receptor 1E (P28566 whole entry): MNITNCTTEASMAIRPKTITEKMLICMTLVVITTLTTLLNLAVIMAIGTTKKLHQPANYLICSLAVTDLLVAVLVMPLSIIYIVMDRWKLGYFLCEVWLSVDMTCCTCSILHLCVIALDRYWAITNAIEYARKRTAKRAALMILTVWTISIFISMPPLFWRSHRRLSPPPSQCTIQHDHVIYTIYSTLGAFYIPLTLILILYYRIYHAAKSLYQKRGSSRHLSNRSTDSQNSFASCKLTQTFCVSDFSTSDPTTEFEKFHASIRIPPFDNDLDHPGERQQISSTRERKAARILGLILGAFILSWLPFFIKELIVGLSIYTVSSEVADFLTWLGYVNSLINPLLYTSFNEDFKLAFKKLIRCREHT
Description: Binding affinity to serotonin 5-HT1E receptor (unknown origin) by PDSP assay

[5] = molecular target: Alpha-1B adrenergic receptor (Homo sapiens, UniProt P35368)
Chain of Alpha-1B adrenergic receptor (P35368 whole entry): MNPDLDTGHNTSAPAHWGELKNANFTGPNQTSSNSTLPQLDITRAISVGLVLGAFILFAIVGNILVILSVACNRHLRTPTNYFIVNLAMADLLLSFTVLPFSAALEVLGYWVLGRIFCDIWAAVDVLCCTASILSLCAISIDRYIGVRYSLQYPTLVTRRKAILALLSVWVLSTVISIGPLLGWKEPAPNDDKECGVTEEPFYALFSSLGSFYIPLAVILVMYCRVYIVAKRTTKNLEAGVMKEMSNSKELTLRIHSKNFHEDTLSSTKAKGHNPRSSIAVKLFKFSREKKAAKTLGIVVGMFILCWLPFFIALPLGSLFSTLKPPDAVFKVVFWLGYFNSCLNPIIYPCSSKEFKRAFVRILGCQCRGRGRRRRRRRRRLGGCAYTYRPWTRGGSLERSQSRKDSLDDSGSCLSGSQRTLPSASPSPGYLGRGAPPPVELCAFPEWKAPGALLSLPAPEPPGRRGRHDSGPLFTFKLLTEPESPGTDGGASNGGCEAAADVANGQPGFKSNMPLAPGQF
Description: Binding affinity to adrenergic alpha1B receptor (unknown origin) by PDSP assay

[6] = molecular target: Alpha-1D adrenergic receptor (Homo sapiens, UniProt P25100); experiment: Binding affinity to adrenergic alpha1D receptor (unknown origin) by PDSP assay
Histamine H2 receptor = Histamine H2 receptor (Homo sapiens, UniProt P25021); experiment: Binding affinity to H2 histamine receptor (unknown origin) by PDSP assay
Chain of Histamine H2 receptor (P25021 whole entry): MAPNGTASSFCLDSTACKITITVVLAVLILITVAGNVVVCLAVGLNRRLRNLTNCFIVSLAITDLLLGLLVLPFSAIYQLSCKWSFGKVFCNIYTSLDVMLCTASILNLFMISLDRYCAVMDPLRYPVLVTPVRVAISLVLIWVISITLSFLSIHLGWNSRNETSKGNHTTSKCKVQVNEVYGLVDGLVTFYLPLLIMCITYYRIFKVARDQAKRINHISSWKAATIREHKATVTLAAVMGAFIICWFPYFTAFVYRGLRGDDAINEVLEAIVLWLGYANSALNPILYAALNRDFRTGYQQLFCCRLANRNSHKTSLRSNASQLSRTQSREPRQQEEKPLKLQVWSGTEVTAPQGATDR

[7] = molecular target: Muscarinic acetylcholine receptor M1 (Homo sapiens, UniProt P11229)
Description: Binding affinity to M1 receptor (unknown origin) by PDSP assay

[8] = molecular target: Muscarinic acetylcholine receptor M3 (Homo sapiens, UniProt P20309)
Chain of Muscarinic acetylcholine receptor M3 (P20309 whole entry): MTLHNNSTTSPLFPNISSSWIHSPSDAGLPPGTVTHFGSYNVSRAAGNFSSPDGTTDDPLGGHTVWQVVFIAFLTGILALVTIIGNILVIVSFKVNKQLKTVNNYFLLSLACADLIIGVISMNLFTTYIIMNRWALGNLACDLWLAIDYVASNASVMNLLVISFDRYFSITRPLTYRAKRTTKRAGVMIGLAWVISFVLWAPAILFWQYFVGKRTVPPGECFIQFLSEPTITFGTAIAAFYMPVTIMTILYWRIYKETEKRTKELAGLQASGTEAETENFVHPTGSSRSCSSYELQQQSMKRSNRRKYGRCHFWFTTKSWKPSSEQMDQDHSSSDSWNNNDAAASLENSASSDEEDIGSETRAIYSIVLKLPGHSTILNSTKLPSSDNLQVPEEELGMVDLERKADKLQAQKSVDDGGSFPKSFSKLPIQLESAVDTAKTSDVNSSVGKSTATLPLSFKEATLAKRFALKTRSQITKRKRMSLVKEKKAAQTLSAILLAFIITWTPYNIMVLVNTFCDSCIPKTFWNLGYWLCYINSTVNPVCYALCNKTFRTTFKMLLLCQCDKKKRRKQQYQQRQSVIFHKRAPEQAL
Description: Binding affinity to M3 receptor (unknown origin) by PDSP assay

[9] = molecular target: T1, 5-hydroxytryptamine receptor 2A (Homo sapiens, UniProt P28223); experiment: Agonist activity at 5-HT2A receptor (unknown origin) relative to serotonin; conditions: concentration not given here
T1 sequence (P28223 whole entry): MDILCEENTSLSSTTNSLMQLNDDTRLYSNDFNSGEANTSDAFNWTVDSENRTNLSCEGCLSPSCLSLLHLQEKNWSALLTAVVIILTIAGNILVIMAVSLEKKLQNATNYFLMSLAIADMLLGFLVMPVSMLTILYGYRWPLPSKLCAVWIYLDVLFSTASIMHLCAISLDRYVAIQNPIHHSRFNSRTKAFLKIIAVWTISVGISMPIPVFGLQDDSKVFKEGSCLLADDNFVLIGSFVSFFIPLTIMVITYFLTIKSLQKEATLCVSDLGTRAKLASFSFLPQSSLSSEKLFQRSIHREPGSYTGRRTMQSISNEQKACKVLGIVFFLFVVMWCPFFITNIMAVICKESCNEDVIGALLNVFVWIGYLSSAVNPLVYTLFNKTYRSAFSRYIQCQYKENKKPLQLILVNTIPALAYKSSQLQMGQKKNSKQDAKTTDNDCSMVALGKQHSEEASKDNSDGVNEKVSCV

D(2) dopamine receptor [10] = molecular target: T2, D(2) dopamine receptor (Homo sapiens, UniProt P14416); experiment: Agonist activity at dopamine D2 receptor (unknown origin) relative to serotonin; conditions: concentration not given here
T2 sequence (P14416 whole entry): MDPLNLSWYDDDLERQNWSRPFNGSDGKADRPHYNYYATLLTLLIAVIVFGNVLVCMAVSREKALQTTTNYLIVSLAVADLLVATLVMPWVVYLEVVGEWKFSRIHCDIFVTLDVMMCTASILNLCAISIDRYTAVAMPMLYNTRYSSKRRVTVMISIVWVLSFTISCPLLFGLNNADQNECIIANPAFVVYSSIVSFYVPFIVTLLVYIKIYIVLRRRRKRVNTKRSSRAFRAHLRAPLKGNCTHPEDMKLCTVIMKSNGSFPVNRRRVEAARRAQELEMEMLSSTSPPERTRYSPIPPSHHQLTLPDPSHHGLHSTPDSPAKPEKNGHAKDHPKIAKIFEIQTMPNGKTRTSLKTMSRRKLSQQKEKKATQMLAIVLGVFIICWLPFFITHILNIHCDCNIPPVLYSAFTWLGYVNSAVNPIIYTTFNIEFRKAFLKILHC

[11] = molecular target: T1, 5-hydroxytryptamine receptor 2A; experiment: Antagonist activity at 5-HT2A receptor (unknown origin) relative to ketanserin; conditions: concentration not given here
D(2) dopamine receptor [12] = molecular target: T2, D(2) dopamine receptor; experiment: Antagonist activity at dopamine D2 receptor (unknown origin) relative to ketanserin; conditions: concentration not given here
Rattus norvegicus [13] = experiment: Inhibition of pre-pulse in ip dosed rat; assay type: functional, organism-based
Rattus norvegicus [14] = experiment: Toxicity in po dosed rat assessed as weight gain after 2 weeks relative to control; assay type: organism-based; conditions: in vivo, 336 h
Rattus norvegicus [15] = experiment: Toxicity in po dosed rat assessed as abnormal metabolic changes after 2 weeks relative to control; assay type: organism-based; conditions: in vivo, 336 h
Rattus norvegicus [16] = experiment: Toxicity in po dosed rat assessed as elevation in liver enzyme level after 2 weeks relative to control; assay type: organism-based; conditions: in vivo, 336 h
Rattus norvegicus [17] = experiment: Toxicity in po dosed rat assessed as change in renal parameter after 2 weeks relative to control; assay type: organism-based; conditions: in vivo, 336 h
[18] = molecular target: T1, 5-hydroxytryptamine receptor 2A
Description: Binding affinity to serotonin 5-HT2A receptor (unknown origin) by PDSP assay

[19] = molecular target: 5-hydroxytryptamine receptor 2B (Homo sapiens, UniProt P41595); experiment: Binding affinity to serotonin 5-HT2B receptor (unknown origin) by PDSP assay
[20] = molecular target: 5-hydroxytryptamine receptor 4 (Homo sapiens, UniProt Q13639); experiment: Binding affinity to serotonin 5-HT4 receptor (unknown origin) by PDSP assay
D(2) dopamine receptor [21] = molecular target: T2, D(2) dopamine receptor
Description: Binding affinity to dopamine D2 receptor (unknown origin) by PDSP assay

[22] = molecular target: Alpha-2A adrenergic receptor (Homo sapiens, UniProt P08913)
Description: Binding affinity to adrenergic alpha2A receptor (unknown origin) by PDSP assay

[23] = molecular target: Alpha-2C adrenergic receptor (Homo sapiens, UniProt P18825)
Description: Binding affinity to adrenergic alpha2C receptor (unknown origin) by PDSP assay

[24] = molecular target: Muscarinic acetylcholine receptor M2 (Homo sapiens, UniProt P08172)
Description: Binding affinity to M2 receptor (unknown origin) by PDSP assay

[25] = molecular target: Muscarinic acetylcholine receptor M4 (Homo sapiens, UniProt P08173)
Description: Binding affinity to M4 receptor (unknown origin) by PDSP assay

[26] = molecular target: Muscarinic acetylcholine receptor M5 (Homo sapiens, UniProt P08912)
Description: Binding affinity to M5 receptor (unknown origin) by PDSP assay

[27] = molecular target: 5-hydroxytryptamine receptor 1A (Homo sapiens, UniProt P08908)
Description: Binding affinity to serotonin 5-HT1A receptor (unknown origin) by PDSP assay

[28] = molecular target: 5-hydroxytryptamine receptor 1D (Homo sapiens, UniProt P28221)
Description: Binding affinity to serotonin 5-HT1D receptor (unknown origin) by PDSP assay

[29] = molecular target: 5-hydroxytryptamine receptor 2C (Homo sapiens, UniProt P28335)
Description: Binding affinity to serotonin 5-HT2C receptor (unknown origin) by PDSP assay

[30] = molecular target: 5-hydroxytryptamine receptor 6 (Homo sapiens, UniProt P50406)
Description: Binding affinity to serotonin 5-HT6 receptor (unknown origin) by PDSP assay

[31] = molecular target: 5-hydroxytryptamine receptor 7 (Homo sapiens, UniProt P34969)
Description: Binding affinity to serotonin 5-HT7 receptor (unknown origin) by PDSP assay

D(1A) dopamine receptor = D(1A) dopamine receptor (Homo sapiens, UniProt P21728)
Description: Binding affinity to dopamine D1 receptor (unknown origin) by PDSP assay

D(3) dopamine receptor = D(3) dopamine receptor (Homo sapiens, UniProt P35462)
Chain of D(3) dopamine receptor (P35462 whole entry): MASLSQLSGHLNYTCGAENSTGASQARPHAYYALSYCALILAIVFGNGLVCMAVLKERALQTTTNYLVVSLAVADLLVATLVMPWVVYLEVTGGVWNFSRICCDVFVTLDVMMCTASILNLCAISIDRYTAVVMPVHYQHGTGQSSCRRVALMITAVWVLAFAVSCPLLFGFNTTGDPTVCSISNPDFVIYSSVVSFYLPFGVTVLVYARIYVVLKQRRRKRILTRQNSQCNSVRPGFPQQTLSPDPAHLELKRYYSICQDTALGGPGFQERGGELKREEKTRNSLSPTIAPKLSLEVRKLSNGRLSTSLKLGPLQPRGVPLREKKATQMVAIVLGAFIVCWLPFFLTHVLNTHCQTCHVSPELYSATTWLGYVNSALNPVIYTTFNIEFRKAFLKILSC
Description: Binding affinity to dopamine D3 receptor (unknown origin) by PDSP assay

[32] = molecular target: Alpha-1A adrenergic receptor (Homo sapiens, UniProt P35348)
Description: Binding affinity to adrenergic alpha1A receptor (unknown origin) by PDSP assay

Chain of 5-hydroxytryptamine receptor 5A (P47898 whole entry): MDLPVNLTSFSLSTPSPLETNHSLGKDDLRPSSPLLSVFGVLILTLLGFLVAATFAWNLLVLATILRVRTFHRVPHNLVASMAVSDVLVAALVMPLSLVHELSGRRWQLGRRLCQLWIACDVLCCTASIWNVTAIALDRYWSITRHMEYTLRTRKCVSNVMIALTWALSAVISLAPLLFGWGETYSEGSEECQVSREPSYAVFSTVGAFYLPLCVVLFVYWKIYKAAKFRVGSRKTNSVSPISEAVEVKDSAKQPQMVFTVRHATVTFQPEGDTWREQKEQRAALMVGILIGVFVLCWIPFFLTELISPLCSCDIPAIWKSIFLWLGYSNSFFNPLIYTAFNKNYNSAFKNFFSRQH
Chain of 5-hydroxytryptamine receptor 3A (P46098 whole entry): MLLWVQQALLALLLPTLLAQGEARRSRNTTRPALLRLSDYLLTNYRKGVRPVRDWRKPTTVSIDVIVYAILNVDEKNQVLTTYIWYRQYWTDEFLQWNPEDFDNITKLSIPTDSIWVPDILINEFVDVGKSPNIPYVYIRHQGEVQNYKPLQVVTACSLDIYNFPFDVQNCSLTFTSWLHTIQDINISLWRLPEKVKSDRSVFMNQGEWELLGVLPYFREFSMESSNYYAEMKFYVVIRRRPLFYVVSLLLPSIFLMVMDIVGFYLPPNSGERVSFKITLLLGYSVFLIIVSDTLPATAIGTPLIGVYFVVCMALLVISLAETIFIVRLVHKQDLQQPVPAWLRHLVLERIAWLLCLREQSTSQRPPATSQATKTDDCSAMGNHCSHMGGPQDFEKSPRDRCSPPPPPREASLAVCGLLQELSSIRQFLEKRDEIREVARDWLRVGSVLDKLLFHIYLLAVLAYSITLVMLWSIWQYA
Chain of 5-hydroxytryptamine receptor 1B (P28222 whole entry): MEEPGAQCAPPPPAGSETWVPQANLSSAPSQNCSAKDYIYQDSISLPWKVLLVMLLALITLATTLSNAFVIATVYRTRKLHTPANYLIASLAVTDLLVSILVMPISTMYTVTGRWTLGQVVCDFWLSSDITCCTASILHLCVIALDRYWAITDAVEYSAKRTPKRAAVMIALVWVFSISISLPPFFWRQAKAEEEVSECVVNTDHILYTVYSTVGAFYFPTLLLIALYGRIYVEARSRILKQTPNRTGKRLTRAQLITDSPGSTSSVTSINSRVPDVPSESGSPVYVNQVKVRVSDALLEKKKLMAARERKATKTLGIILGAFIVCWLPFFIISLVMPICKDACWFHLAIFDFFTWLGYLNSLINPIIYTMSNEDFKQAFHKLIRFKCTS
Chain of D(1B) dopamine receptor (P21918 whole entry): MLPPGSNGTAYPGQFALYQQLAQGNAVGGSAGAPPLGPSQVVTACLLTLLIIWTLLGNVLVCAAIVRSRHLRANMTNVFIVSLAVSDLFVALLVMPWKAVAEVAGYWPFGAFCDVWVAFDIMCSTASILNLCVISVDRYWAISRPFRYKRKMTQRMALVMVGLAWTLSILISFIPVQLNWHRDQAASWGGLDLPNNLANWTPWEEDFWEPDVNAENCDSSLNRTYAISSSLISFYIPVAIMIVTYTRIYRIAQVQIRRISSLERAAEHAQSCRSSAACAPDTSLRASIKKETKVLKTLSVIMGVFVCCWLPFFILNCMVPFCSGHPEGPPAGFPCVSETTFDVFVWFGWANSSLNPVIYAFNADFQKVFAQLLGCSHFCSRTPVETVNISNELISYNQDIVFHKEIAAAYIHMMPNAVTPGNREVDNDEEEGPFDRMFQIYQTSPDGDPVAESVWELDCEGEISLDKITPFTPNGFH

For CN1CCN(C2=Nc3cc(Cl)ccc3Nc3ccccc32)CC1 [CLOZAPINE], the Ki [1] was > 1000 nM.
For Cc1cc2c(s1)Nc1ccccc1N=C2N1CCN(C)CC1 [OLANZAPINE], the Ki [2] was 1000 nM, the Ki [1] was > 1000 nM and the Ki (D(1B) dopamine receptor) was 100 nM.
OCCOCCN1CCN(C2=Nc3ccccc3Sc3ccccc32)CC1 [QUETIAPINE] was tested, and the Ki [3] was > 1000 nM, the Ki [4] was > 1000 nM and the Ki [1] was > 1000 nM. For the same compound, the Ki (D(1B) dopamine receptor) was > 1000 nM and the Ki [5] was 100 nM.
For CN1CCC2C(C1)c1cccc3c1N2c1ccccc1CS3 (stereo not drawn), the Ki [6] was 794 nM, the Ki (Histamine H2 receptor) was 79.4 nM and the Ki [7] was > 1000 nM. The Ki [8] was > 1000 nM, the inhibition [9] was 4% and the inhibition (D(2) dopamine receptor [10]) was 0%. For the same compound, the inhibition [11] was 101%, the inhibition (D(2) dopamine receptor [12]) was 95% and the inhibition (Rattus norvegicus [13]) was “Active”. For the same compound, the Activity (Rattus norvegicus [14]) was “Non-toxic”, the Activity (Rattus norvegicus [15]) was “Non-toxic” and the Activity (Rattus norvegicus [16]) was “Non-toxic”. For the same compound, the Activity (Rattus norvegicus [17]) was “Non-toxic”, the Ki [18] was 2 nM and the Ki [19] was 5.01 nM. For the same compound, the Ki [20] was > 1000 nM, the Ki (D(2) dopamine receptor [21]) was 126 nM and the Ki [22] was 63.1 nM. For the same compound, the Ki [23] was 31.6 nM, the Ki [24] was > 1000 nM and the Ki [25] was > 1000 nM. It also gave a Ki [26] of 794 nM, a Ki [27] of 39.8 nM and a Ki [3] of 316 nM. The Ki [28] was 63.1 nM, the Ki [4] was 2510 nM and the Ki [29] was 7.94 nM. For the same compound, the Ki [2] was 631 nM, the Ki [30] was 15.8 nM and the Ki [31] was 79.4 nM. For the same compound, the Ki (D(1A) dopamine receptor) was 25.1 nM, the Ki (D(3) dopamine receptor) was 31.6 nM and the Ki [32] was 501 nM. For the same compound, the Ki [5] was > 1000 nM.

— ChEMBL document CHEMBL3217546, “The synthesis and receptor binding affinities of DDD-016, a novel, potential, atypical antipsychotic” (Medchemcomm, 2012)
